Here are results for one substance from patent US10695436B2, “Non-cleavable polymer conjugated with alpha V beta 3 integrin thyroid antagonists” (NANOPHARMACEUTICALS, LLC, priority 2016, dated 2020).

The test system of series [1] is U87MG glioblastoma xenografts. The experiment in a line: U87MG-luc glioblastoma subcutaneous xenografts in the nude mouse. The format is in vivo. On the procedure:
The xenograft model of glioblastoma is a standard model for study of GBM. In the current studies, athymic, immunodeficient NCr nude mice aged 5-6 weeks and weighing 18-20 g were used. Animals were provided with ad libitum access to water and food. Animals allowed to acclimatize to the facility for 5 days prior to study. Cultured U87MG-luc cells were harvested and implanted subcutaneously (s.c.) in each flank (5×10^6 cells in 100 uL volumes containing 50% Matrigel) Tumors were grown for 2 days (to an initial volume of 150-250 mm^3) before administration of the control, C-DAT 1320, C-TAT 1330, P-TAT 730, P-bi-DAT 1020, P-bi-TAT 1030. Immediately before initiation of treatment at 2 days after implantation, animals were divided into control and treatment groups containing similar distributions of tumor volumes (calipers measurement). Polymer conjugated P-DAT 720 and P-TAT 730 (3 mg or 10 mg/kg body weight) was administered daily s.c. to two groups of animals×21 days, and vehicle (PBS, pH 8.0/0.5% ethanol) was administered daily s.c. to one group of animals as control×21 days. There were 4 animals and 8 grafts/treatment group. The control group and one group of drug-treated animals humanely sacrificed at 21 days; the second group of drug-treated mice observed off therapy for an additional 22 days to detect any tumor re-growth. The second drug-treated group thus observed for a total of 43 days. Tumors harvested and weighed, then fixed, sliced and subjected to hematoxylin and eosin (H&E) staining. Microscopic slides accommodated the full diameter of the control tumors. […]
Histologic evaluation of paraffin-embedded tissue sections were stained (hematoxylin and eosin), and each section was coded. The area of the section measured with a stage micrometer, and the percentage of viable vs. necrotic tumor, manifested by loss of cell density, dissolution of the plasma membrane and loss of nuclear structure estimated visually. The number of mitoses and apoptotic cells per high power field was counted for 5 fields of viable tumor areas and averaged per tissue section. […]

Series [2] has as its system pancreatic cancer SUIT 2 xenografts. The experiment in a line: Pancreatic cancer SUIT 2 xenografts, with or without radiation. Type of series: in vivo, mouse. The settings on record: for Decrease in tumor size, combination with radiation / Decrease in cell viability, combination with radiation / Increase of necrosis, combination with radiation: vs. non-irradiated control; for Tumor weight reduction after 20 days / Increase in % cell necrosis in tissue sections / Percent reduction in tumor cell viability: no radiation. On the procedure: Female NCr mice (Taconic Farms, Hudson, N.Y.) for in vivo studies obtained at 5-6 weeks of age (20 gm body weight) and maintained under specific pathogen-free conditions, and food and water provided ad libitum. The animals allowed to acclimate for 5 days. Cultured human SUIT 2 cells were harvested and implanted subcutaneously (s.c.) in each flank of the mice. Inocula comprising 100 μL, 50% Matrigel °, and containing 2×10^6 tumor cells was prepared. Tumors were grown for 7 days, at which time the animals were randomized into control and P-bi-TAT groups (6 animals/group, 12-carcinoma grafts/group). Starting on day 0, drug was administered at 3 or 10 mg of P-bi-TAT/kg body weight, daily for 20 days (to experimental day 19). Control animals received vehicle (PBS) daily. Animals were sacrificed on experimental day 20. Tumors were harvested and the weight of the tumors were measured. Tumors were formalin-fixed, imbedded in paraffin and sliced.
Effectiveness of radiation therapy, alone and in conjunction with P-bi-TAT was also assessed. The Radiation treatment was one Gy administered to right flank xenografts on days 10 and 17. Geometry of flank exposure excluded radiation exposure to the left flank of study animals, so that the left flank served as a control in the radiation studies.

A short description of series [3]: Safety studies, C57BL6 mice, 14 days. Type of series: in vivo. On the procedure:
Preclinical toxicology of a representative of the polymer conjugated thyrointegrin antagonist antiangiogenic agent of P-bi-TAT was pursued in 5-to-6 week-old C57BL6 mice, treated for 14 days with varying doses of P-bi-TAT. The treatment groups were control (vehicle), 1 mg/kg, 3 mg/kg, 10 mg/kg, 30 mg/kg, 100 mg/kg and 330 mg/kg P-bi-TAT, administered daily s.c. for 14 days. Each treatment group consisted of 5 male and 5 female animals, and animal weights were measured twice weekly. Mice terminated after 14 days and blood samples collected from the retro-orbital venous plexus. Blood samples centrifuged, and harvested plasma was stored at −80° C. until subjected to analyses described below.
Liver function was estimated by measurement in stored plasma of alanine transaminase (ALT) and aspartate transaminase (AST) activities (Colorimetric kit, Biovision, Inc., Milpitas, Calif.) the data for which is shown in FIG. 44. Cardiac troponin I (cTnI) levels in plasma were measured by an ELISA method (Life Diagnostics, West Chester, Pa.) as an index of myocardial damage (FIG. 44). It is a troponin found exclusively in the heart and not in other forms of muscle. Kidney function estimated by measurement of plasma creatinine concentration (Colorimetric kit, Biovision, Inc.) (FIG. 44). Satisfactory standard curves were constructed for each of the liver and kidney assays. […]

Series [4] concerns Matrigel growth factors implant-mediated angiogenesis. The experiment in a line: Mouse Matrigel-growth factors implant angiogenesis model (hemoglobin). The format is in vivo. To be noted: 10, 30, 100 μg/10 μl; day 14. On the procedure: The mouse Matrigel model was performed in accordance with institutional guidelines for animal safety and welfare. Female mice C56/BL aged 5-6 weeks and body weights of 20 g were purchased from Taconic Farms (Hudson, N.Y., USA). The animals were maintained under specific pathogen-free conditions and housed 4 animals per cage, under controlled conditions of temperature (20-24° C.) and humidity (60-70%) and a 12 h light/dark cycle. The in vivo study carried out in the animal facility of the Veterans Affairs (VA) Medical Center, Albany, N.Y., and the experimental protocol approved by the VAIACUC. Mice were acclimated for 5 d prior to the start of experiments. […]
Polymer Conjugated DAT, TAT or MAT derivatives were tested at three different doses (10, 30, 100 μg/10 μl). […] At day 14-post plug implant, all animals were sacrificed and hemoglobin contents were quantitated using spectrophotometry. […]
Matrigel plug hemoglobin (Hb) content was indexed as a measure of new vascularity formation. […] A volume of 50 μl of supernatant were mixed with 50 μl of Drabkin's reagent and allowed to sit at room temperature for 15-30 min, after which 100 μl was placed in a 96-well plate and absorbance was measured at 540 nm with a Microplate Manager ELISA reader. The Hb concentration was expressed as mg/ml based on comparison with a standard curve.

Series [5] has as its system orthotropic brain GBM tumor and subcutaneous GBM xenografts. The experiment in a line: Kinetics of Cy5 labeled conjugates in GBM tumors (IVIS imaging). The format is in vivo. On the procedure:
Each group of animals was provided with orthotropic implants (GBM) and after tumor growth in the brain and subcutaneously implanted GBM Xenografts. Polymer conjugated MAT 210, TAT 230 or DAT 220 derivatives were injected subcutaneously with P-bi-TAT-Cy5 and other polymer conjugated TAT 230 or DAT 220 derivative-Cy5. IVIS imaging was performed immediately after injection and at 30 min, 1 h, 2 h, 3 h, 4 h to detect the fluorescence intensity at the orthotropic brain xenograft tumor site (brain) and subcutaneous xenografts tumors. […] The graphs depicted in FIGS. 34 and 35 describe the kinetics of the thyrointegrin antagonist derivatives' uptake into GBM tumors in the brain or subcutaneously implanted tumors. FIGS. 34-35 describe the effects of the polymer conjugated thyrointegrin antagonist derivatives containing MAT 210, DAT 220 and TAT 230 over time including bifunctional embodiments thereof.

For another series, the system named is U87-luc cells. Briefly: GBM (U87-luc) xenografts, orthotopic and subcutaneous, 7 days treatment. The settings on record: 1, 3 and 10 mg/kg, SC daily for 7 days. The format is in vivo, mouse. On the procedure:
Glioblastoma cells: U87-luc cells implanted orthotopically at 0.2×10^6 cell in 20 ul, in Matrigel and subcutaneously xenografted at 2×10^6 cells/implant with Matrigel in athymic female mice. Animals treated with polymers conjugated thyrointegrin antagonists, including derivatives of P-DAT 720, P-TAT 730 and bifunctional derivatives thereof for 7 days after 1 day post-implant and IVIS imaging of the brain tumor and subcutaneous tumor xenograft. […] FIGS. 38-40 depict the measurable dose-dependent effects of p-bi-TAT 1030 on brain GBM tumor and subcutaneous GBM tumor including the effect on luminescent signals of GBM in the brain, average tumor weight and bioluminescent intensity.

Consider “O,O′-Bis({4-[3,5-diiodo-4-(1-methylen-1,2,3-triazol-4-ylmethoxy)phenoxy]-3,5-diiodophenyl}acetic acid) polyethylene glycol [P-bi-TAT]”, for which the “Reduction in tumor cell viability (histological score)” value in series [1] (3 mg P-bi-TAT/kg s.c. daily for 21 days) came to 62%; in series [1] (10 mg P-bi-TAT/kg s.c. daily for 21 days) it was 72%. Moreover, the “Reductions in cell viability achieved by day 21” value in series [1] (3 mg/kg and 10 mg/kg dosages, histologic evaluation) is 60-70%. The results for the “Decrease in tumor size, combination with radiation” value in series [2] (3 mg P-bi-TAT/kg plus one Gy radiation) and in series [2] (10 mg P-bi-TAT/kg plus one Gy radiation) were 71% and 77%, respectively. Also, the “Tumor weight reduction after 20 days” value in series [2] (3 mg/kg daily) was 55%; in series [2] (10 mg/kg daily), 65%. Further, the results for the “Decrease in cell viability, combination with radiation” value in series [2] (3 mg/kg plus 1 Gy radiation) and in series [2] (10 mg/kg plus 1 Gy radiation) were 54% and 68%, respectively. The results for the “Increase of necrosis, combination with radiation” value in series [2] (3 mg/kg plus 1 Gy radiation) and in series [2] (10 mg/kg plus 1 Gy radiation) were 65% and 70%, respectively. The “Increase in % cell necrosis in tissue sections” value is on record as “not significant” in series [2] (3 mg/kg) and “more than a doubling” in series [2] (10 mg/kg). Moreover, the “Percent reduction in tumor cell viability” value in series [2] (3 mg/kg) is listed as “insignificant”; in series [2] (10 mg/kg), 43%. Moreover, in series [3] (1-330 mg/kg daily s.c. for 14 days), the Body weights entry is listed as “unaffected”. Also, the “Liver, heart or kidney toxicity (ALT, AST, cTnI, creatinine in plasma)” value in series [3] (male and female mice, 2 weeks, up to 100-fold the efficacious dose (3-10 mg/kg)) is reported as “no evidence of liver, heart or kidney toxicity”. In addition, in series [4], the “Anti-angiogenic effect (Matrigel plug hemoglobin levels)” value is reported as “dose dependent response on angiogenesis”. In series [5] (subcutaneous injection, IVIS up to 4 hours), the “Cy5 signal in the brain over time” value is “seen in the brain at 30 minutes and sustained for the 4 hours of monitoring”. For the same substance, the “Cy5 signal in brain GBM tumor versus subcutaneous GBM tumor xenografts” value in series [5] (tumors removed after 4 hours) was “comparable”. For the same substance, the “Suppression of tumor and cell viability in brain and subcutaneous GBM tumor” value in the series with U87-luc cells is “dose dependent suppression of the tumor”.
